Measurements published in the Kinase Knowledgebase extract (Sharma et al. 2016).
pIC50: −log10 of the molar value.

Target: EGFR (UniProt P00533)
Test: Inhibition of EGFR Kinase Activity

EGFR, sequence (P00533 whole entry, looked up): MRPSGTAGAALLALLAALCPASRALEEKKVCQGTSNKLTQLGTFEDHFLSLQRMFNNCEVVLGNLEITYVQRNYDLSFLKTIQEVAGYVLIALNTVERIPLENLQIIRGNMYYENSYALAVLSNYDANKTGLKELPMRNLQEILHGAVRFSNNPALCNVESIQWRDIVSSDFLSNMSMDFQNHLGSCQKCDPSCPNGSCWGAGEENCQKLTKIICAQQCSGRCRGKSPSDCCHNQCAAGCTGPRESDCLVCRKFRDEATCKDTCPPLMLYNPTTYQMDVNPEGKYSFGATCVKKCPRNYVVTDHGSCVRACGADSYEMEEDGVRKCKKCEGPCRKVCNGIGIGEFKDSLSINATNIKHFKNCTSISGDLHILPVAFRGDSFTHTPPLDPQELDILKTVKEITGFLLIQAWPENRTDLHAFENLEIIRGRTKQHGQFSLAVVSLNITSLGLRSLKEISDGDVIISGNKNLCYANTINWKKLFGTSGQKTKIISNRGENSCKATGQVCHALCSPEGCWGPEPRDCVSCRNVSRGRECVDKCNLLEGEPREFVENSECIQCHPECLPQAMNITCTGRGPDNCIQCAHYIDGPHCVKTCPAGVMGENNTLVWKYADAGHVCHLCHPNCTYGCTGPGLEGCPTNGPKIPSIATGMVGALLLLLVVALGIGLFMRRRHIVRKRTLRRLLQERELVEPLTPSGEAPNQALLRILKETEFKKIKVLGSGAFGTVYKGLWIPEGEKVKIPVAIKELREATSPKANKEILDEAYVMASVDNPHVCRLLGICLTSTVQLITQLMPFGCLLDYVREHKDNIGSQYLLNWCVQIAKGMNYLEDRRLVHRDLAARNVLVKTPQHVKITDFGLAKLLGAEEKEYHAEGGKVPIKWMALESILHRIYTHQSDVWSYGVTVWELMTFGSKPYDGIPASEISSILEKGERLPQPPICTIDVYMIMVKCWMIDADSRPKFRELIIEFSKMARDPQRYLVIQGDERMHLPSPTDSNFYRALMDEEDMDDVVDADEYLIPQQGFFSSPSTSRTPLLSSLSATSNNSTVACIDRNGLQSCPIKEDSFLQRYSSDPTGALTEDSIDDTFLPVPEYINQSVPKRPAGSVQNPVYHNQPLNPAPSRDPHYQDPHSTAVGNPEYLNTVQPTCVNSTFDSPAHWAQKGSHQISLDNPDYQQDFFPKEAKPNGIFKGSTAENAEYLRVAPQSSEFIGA

Compound	pIC50
C=CCN(c1ncnc(Nc2ccc(NC(=O)C=C)cc2)n1)c1cc(Cl)ccc1C	> 4.30
C#CCC(=O)Nc1cccc(Nc2ncnc(NN3CCCc4cc(C)ccc43)n2)c1	> 4.30
C=CC(=O)Nc1ccc(Nc2ncnc(Nc3cc(OC)c(OC)c(OCCN4CCOCC4)c3)n2)cc1	> 4.30
C=CC(=O)N(CCCN1CCOCC1)c1cccc(Nc2ncnc(N(C)C3CC3c3ccccc3)n2)c1 (configuration not stated)	> 4.30
C=CCN(c1ccc2NN(=Cc2c1)Cc3ccccn3)c4ncnc(Nc5ccc(NC(=O)C=C)cc5)n4	> 4.30
C=CCN(c1cc(OC)c(OC)c(OCCN2CCOCC2)c1)c1ncnc(Nc2cccc(NC(=O)C=C)c2)n1	> 4.30
CC#CC(=O)Nc1cccc(Nc2ncnc(N(C)c3cccc(C)c3)n2)c1	> 4.30
CC#CC(=O)Nc1cc(Nc2ncnc(N(C)c3cccc(Cl)c3)n2)ccc1OCCCC1CCN(C)CC1	> 4.30
C=CC(=O)Nc1cccc(Nc2ncnc(NN3CCCc4cc(OC)ccc43)n2)c1	> 4.30
CC#CC(=O)Nc1cc(Nc2ncnc(Nc3ccc4c(cnn4Cc4ccccc4)c3)n2)ccc1OCCCC1CCN(C)CC1	> 4.30
CC#CC(=O)Nc1cccc(Nc2ncnc(N(C)c3cccc(Cl)c3)n2)c1	> 4.30
C=CC(=O)Nc1ccc(Nc2ncnc(Nc3cccc(C(N)=O)c3)n2)cc1	> 4.30
CC#CC(=O)Nc1cccc(Nc2ncnc(Nc3ccc(F)c(Cl)c3)n2)c1	> 4.30
C=CC(=O)Nc1cccc(Nc2ncnc(N(C)c3cccc(CC(=O)OC)c3)n2)c1	> 4.30
CC#CC(=O)Nc1cc(Nc2ncnc(Nc3ccc4c(ccn4Cc4ccccc4)c3)n2)ccc1OCCCN1CCOCC1	> 4.30
C=CC(=O)Nc1cccc(Nc2ncnc(Nn3c(=O)[nH]c4ccccc43)n2)c1	> 4.30
CC#CC(=O)Nc1cc(Nc2ncnc(N(C)c3ccc4c(cnn4Cc4ccccc4)c3)n2)ccc1OCCCC1CCN(C)CC1	> 4.30
C=CC(=O)Nc1cccc(Nc2ncnc(N(C)c3ccc(OCc4ccccc4)cc3)n2)c1	> 4.30
CC#CC(=O)Nc1cccc(Nc2ncnc(N(CC)c3cc(Cl)ccc3C)n2)c1	> 4.30
CC#CC(=O)Nc1cccc(Nc2ncnc(N(C)c3cc(Cl)cc4ccccc34)n2)c1	> 4.30
C=CC(=O)Nc1ccc(Nc2ncnc(N(CC)c3cccc(C(N)=O)c3)n2)cc1	> 4.30
C=CC(=O)Nc1ccc(Nc2ncnc(Nc3cccc(S(=O)(=O)c4ccc([N+](=O)[O-])cc4)c3)n2)cc1	> 4.30
C=CC(=O)Nc1cccc(Nc2ncnc(N(C)C3CC3c3ccc(Cl)cc3)n2)c1 (configuration not stated)	> 4.30
CC#CC(=O)Nc1cccc(Nc2ncnc(N(C)c3ccc4c(ccn4Cc4ccccc4)c3)n2)c1	> 4.30

Compound	pIC50
CC#CC(=O)Nc1cccc(Nc2ncnc(Nc3cccc(C(N)=O)c3)n2)c1	> 4.30
CN(c1ccc2NN(=Cc2c1)Cc3ccccn3)c4ncnc(Nc5ccc(NC(=O)C=C)cc5)n4	> 4.30
C=CCN(c1ncnc(Nc2cccc(NC(=O)C=C)c2)n1)C1CC1c1ccccc1 (configuration not stated)	> 4.30
CC#CC(=O)Nc1cccc(Nc2ncnc(N(C)n3c(=O)[nH]c4ccccc43)n2)c1	> 4.30
C=CC(=O)Nc1cc(Nc2ncnc(N(C)c3ccc(OCc4ccccc4)c(Cl)c3)n2)ccc1OCCCN1CCOCC1	> 4.30
C=CC(=O)Nc1cccc(Nc2ncnc(N(C)c3ccc(OC)c(OCCOC)c3)n2)c1	> 4.30
C=CCN(c1ccc(F)c(Cl)c1)c1ncnc(Nc2cccc(NC(=O)C#CC)c2)n1	> 4.30
C=CCN(c1ccc2c(cnn2Cc2ccccc2)c1)c1ncnc(Nc2cccc(NC(=O)C#CC)c2)n1	> 4.30
C=CC(=O)N(CCCN1CCOCC1)c1cccc(Nc2ncnc(N(C)c3cccc(Cl)c3)n2)c1	> 4.30
CC#CC(=O)Nc1cccc(Nc2ncnc(N(C)c3cc(OC)c(OC)c(OCCN4CCOCC4)c3)n2)c1	> 4.30
C=CC(=O)Nc1cccc(Nc2ncnc(Nn3c(=O)n(C(=O)C(C)(C)C)c4ccccc43)n2)c1	> 4.30
CC#CC(=O)Nc1cccc(Nc2ncnc(Nn3c(=O)n(C(=O)C(C)(C)C)c4ccccc43)n2)c1	> 4.30
C=CC(=O)N(CCCN1CCOCC1)c1cccc(Nc2ncnc(Nc3cc(Cl)ccc3C)n2)c1	> 4.30
C=CC(=O)Nc1cccc(Nc2ncnc(Nc3ccc(OCCO)cc3)n2)c1	> 4.30
C=CC(=O)N(CCCN1CCOCC1)c1cccc(Nc2ncnc(Nc3cccc(C)c3)n2)c1	> 4.30
CC#CC(=O)Nc1cccc(Nc2ncnc(Nn3c(=O)[nH]c4ccccc43)n2)c1	> 4.30
C#CCC(=O)Nc1cccc(Nc2ncnc(NN3CCCc4ccc(Cl)cc43)n2)c1	> 4.30
C=C/C=C/C(=O)Nc1cccc(Nc2ncnc(NC3CC3c3ccc(Cl)cc3)n2)c1 (configuration not stated)	> 4.30
C=CC(=O)N(CCCN1CCOCC1)c1cccc(Nc2ncnc(Nc3ccc(F)c(Cl)c3)n2)c1	> 4.30
CC#CC(=O)Nc1cccc(Nc2ncnc(Nc3ccc(OCCOC)c(OC)c3)n2)c1	> 4.30
C=CC(=O)Nc1cccc(Nc2ncnc(Nc3ccc4c(cnn4Cc4ccccn4)c3)n2)c1	> 4.30
CC#CC(=O)Nc1cccc(Nc2ncnc(Nc3ccc(OCc4ccccc4)cc3)n2)c1	> 4.30
CC#CC(=O)Nc1cccc(Nc2ncnc(N(CC)c3cccc4ccccc34)n2)c1	> 4.30
